From paper PMC8058344, “ARIH1 signaling promotes anti-tumor immunity by targeting PD-L1 for proteasomal degradation” (Nature Communications, 2021)
pIC50: −log10 of the molar value.

Experiments:
KDR(VEGFR2) = KDR(VEGFR2) (Homo sapiens, UniProt P35968); test: In vitro kinase specificity profiling; type: biochemical
EGFR L858R = EGFR L858R (Homo sapiens, UniProt P00533, L858R); test: In vitro kinase specificity profiling; type: biochemical
PD-L1 = PD-L1 phosphorylation sites by mass spectrometry in HEK293T cells transfected with Flag-PD-L1; type: cell-based, human; conditions: Flag-PD-L1, 10 μM ES-072 48 h, MS-MS
Procedure: Fig. 2 Phosphorylation on S279/S283 impairs the stability of PD-L1. a Mapping PD-L1 phosphorylation sites following ES-072 treatment. HEK293T cells were transfected with Flag-PD-L1 and treated with 10 μM ES-072 for 48 h. Immunoprecipitated PD-L1 was analyzed by mass spectrometry following phosphopeptide enrichment. Peptide ionization data corresponding to Ser279/283 are shown. b Schematic diagram of phosphorylated sites on PD-L1. Full-length PD-L1 was separated into an extracellular domain (ECD) and intracellular domain (ICD). SP: signal peptide; TM: transmembrane domain. c Schematic diagram of phosphorylated sites, S279 and S283 in the ICD of PD-L1. Positions of phosphorylated sites were labeled in red. This image was created by the first author. d Immunoblots of PD-L1 (anti-Flag) in HEK293T cells transfected with Flag-PD-L1 (WT) or Flag-PD-L1 (mutants) following treatment with 25 ng/mL EGF and/or 10 μM ES-072 for 48 h, 2SA represents S279A/S283A. e Immunoblots of PD-L1 (anti-Flag) in HEK293T cells transfected with Flag-PD-L1 (WT/2SA) following treatment with 20 μg/mL cycloheximide (CHX) for indicated times. f Immunoblots of H1975 cell lysates following ES-072 treatment for 2 h, at indicated doses. g HEK293T cells were transfected with Flag-PD-L1 (WT/2SA) following treatment with 10 μM ES-072 for 2 h; PD-L1 was immunoprecipitated with anti-Flag and immunoblotted with indicated antibodies. Flag-tagged empty vector (Flag-EV) was transfected as a negative control. h Representative images of p-PD-L1 (Ser279) and PD-L1 immunohistochemistry (IHC) staining from EGFR wild-type vs. mutant human alveolar adenocarcinoma specimens. Scale bars represent 50 μm. i, j Quantification of IHC analysis for p-PD-L1 (Ser279) (i) and PD-L1 (j) in h. Data represent means ± SEM, n = 7 (i), n = 5 (j), **P < 0.01, P = 0.0013 (i); P = 0.002 (j). k Immunoblottings of p-PD-L1 (Ser279) and PD-L1 in EGFR wild-type (n = 4) vs. mutant (n = 4) human lung adenocarcinoma specimens. Source data are provided as a Source Data file.
Flag-tagged PD-L1 was overexpressed in HEK293T cells and were trypsin-digested. PD-L1 was immunoprecipitated with beads following immunoprecipitation. The resulting peptides were subjected to the phosphopeptide enrichment using TiO2 beads. The enriched phospho-peptides were analyzed on the Q Exactive™ HF mass spectrometer (Thermo Fisher Scientific). The identification and quantification of phosphorylated peptides were done by MaxQuant. The tandem mass spectra were searched against the UniProt human protein database together with a set of commonly observed contaminants. The precursor mass tolerance was set as 20 p.p.m. and the fragment mass tolerance was set as 0.1 Da. The […] cysteine carbamide methylation was set as a static modification and the methionine oxidation, as well as serine, threonine, and tyrosine phosphorylation, were set as variable modifications. The false discovery rate (FDR) at peptide spectrum match level was controlled below 1%.

IGF1R = IGF1R (Homo sapiens, UniProt P08069); test: In vitro kinase specificity profiling; type: biochemical
Sequence of IGF1R (P08069 31-1367, species assumed): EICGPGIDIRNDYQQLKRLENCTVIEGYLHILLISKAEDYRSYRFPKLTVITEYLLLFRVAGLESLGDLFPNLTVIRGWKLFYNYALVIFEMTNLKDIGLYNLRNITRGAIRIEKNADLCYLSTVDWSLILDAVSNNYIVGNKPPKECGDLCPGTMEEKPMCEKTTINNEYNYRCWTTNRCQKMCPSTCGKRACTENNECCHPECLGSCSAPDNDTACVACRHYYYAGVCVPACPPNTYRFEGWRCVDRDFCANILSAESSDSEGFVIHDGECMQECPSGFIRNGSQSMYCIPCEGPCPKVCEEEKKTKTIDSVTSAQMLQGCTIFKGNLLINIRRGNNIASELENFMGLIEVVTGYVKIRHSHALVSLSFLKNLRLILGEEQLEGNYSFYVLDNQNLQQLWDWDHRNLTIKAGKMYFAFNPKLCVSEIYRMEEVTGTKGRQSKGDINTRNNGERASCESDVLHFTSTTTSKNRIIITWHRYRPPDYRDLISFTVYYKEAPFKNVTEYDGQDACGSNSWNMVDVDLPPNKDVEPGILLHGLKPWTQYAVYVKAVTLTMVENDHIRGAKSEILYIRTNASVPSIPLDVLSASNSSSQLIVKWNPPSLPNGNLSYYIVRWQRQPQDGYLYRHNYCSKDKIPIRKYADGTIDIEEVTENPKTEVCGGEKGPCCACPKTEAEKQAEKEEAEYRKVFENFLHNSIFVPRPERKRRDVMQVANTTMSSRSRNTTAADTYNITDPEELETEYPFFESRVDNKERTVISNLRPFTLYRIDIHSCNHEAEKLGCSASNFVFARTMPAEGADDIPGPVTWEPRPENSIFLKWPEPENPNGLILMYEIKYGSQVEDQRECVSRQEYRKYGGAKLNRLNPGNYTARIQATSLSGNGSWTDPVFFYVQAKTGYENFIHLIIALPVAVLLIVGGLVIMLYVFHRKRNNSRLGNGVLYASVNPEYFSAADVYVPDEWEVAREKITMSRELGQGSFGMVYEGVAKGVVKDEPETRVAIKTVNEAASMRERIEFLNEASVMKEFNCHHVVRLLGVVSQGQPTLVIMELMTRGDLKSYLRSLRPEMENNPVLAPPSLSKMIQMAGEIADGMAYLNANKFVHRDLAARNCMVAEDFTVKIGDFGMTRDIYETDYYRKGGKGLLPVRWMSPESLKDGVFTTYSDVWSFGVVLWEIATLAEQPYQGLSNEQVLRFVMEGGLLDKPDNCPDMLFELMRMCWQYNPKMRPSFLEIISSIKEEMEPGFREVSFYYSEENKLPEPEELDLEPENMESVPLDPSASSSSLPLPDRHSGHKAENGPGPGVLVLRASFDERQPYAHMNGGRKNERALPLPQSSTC

T790M/L858R EGFR = T790M/L858R EGFR (Homo sapiens, UniProt P00533, L858R/T790M); test: In vitro kinase specificity profiling; type: biochemical
Sequence of T790M/L858R EGFR (P00533 25-1210 T790M/L858R): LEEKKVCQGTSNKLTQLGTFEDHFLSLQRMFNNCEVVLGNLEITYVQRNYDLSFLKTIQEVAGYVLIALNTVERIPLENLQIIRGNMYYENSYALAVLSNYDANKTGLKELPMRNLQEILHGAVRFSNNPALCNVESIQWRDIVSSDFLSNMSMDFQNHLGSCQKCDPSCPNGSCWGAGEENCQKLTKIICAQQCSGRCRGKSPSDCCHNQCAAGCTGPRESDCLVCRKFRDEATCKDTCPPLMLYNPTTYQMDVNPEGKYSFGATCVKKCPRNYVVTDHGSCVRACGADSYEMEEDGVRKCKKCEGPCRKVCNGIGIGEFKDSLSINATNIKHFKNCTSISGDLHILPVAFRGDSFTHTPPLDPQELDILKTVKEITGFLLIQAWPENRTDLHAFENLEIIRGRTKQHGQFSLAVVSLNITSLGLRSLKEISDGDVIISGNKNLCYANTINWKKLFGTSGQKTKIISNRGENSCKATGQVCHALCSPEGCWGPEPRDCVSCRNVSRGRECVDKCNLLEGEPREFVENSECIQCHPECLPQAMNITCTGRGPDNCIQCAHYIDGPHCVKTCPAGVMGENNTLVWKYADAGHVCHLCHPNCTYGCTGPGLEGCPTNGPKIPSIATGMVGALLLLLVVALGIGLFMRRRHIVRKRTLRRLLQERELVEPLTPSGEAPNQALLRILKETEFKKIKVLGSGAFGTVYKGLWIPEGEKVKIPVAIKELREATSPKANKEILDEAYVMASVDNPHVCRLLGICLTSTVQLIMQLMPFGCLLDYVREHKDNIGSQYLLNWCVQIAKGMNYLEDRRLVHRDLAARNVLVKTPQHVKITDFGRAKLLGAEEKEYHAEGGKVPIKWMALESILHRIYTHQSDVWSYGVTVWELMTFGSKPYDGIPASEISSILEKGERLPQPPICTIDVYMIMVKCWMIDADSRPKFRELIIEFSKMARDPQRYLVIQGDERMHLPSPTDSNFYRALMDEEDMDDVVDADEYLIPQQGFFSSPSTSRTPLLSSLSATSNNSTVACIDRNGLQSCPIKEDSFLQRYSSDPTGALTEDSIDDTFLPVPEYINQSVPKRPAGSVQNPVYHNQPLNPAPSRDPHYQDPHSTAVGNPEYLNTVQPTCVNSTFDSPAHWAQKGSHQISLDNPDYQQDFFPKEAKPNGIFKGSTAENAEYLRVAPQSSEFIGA

Sequence of EGFR L858R (P00533 25-1210 L858R): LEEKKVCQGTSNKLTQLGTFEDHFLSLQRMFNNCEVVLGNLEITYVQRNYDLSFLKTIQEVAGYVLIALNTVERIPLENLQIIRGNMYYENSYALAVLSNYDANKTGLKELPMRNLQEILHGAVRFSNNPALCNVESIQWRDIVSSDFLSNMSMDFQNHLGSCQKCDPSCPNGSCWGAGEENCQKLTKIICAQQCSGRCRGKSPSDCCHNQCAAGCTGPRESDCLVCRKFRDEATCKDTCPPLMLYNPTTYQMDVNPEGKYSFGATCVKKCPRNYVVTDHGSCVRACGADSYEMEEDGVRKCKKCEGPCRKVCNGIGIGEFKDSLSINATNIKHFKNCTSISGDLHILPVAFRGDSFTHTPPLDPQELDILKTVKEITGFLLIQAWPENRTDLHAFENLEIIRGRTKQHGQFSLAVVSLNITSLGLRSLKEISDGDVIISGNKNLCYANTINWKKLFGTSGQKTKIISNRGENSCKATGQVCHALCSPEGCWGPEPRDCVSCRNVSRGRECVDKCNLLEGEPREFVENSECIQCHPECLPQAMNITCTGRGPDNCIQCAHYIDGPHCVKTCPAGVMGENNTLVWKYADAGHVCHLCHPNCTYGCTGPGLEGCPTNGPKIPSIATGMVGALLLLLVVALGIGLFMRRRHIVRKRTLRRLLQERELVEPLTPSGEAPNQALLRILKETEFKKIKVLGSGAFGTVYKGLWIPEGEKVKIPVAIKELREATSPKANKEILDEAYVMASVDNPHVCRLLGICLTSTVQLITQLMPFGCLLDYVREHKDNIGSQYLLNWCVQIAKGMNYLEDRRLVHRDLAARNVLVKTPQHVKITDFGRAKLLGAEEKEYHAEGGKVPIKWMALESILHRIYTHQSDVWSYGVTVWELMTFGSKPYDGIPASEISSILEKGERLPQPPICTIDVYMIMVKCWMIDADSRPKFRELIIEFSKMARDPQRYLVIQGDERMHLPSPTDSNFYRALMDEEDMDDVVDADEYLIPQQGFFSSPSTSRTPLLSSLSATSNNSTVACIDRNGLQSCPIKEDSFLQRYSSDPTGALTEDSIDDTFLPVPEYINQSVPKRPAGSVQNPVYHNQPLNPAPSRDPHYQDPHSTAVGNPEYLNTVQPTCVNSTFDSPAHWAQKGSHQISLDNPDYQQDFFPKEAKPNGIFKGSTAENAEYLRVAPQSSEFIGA
Sequence of KDR(VEGFR2) (P35968 20-1356, species assumed): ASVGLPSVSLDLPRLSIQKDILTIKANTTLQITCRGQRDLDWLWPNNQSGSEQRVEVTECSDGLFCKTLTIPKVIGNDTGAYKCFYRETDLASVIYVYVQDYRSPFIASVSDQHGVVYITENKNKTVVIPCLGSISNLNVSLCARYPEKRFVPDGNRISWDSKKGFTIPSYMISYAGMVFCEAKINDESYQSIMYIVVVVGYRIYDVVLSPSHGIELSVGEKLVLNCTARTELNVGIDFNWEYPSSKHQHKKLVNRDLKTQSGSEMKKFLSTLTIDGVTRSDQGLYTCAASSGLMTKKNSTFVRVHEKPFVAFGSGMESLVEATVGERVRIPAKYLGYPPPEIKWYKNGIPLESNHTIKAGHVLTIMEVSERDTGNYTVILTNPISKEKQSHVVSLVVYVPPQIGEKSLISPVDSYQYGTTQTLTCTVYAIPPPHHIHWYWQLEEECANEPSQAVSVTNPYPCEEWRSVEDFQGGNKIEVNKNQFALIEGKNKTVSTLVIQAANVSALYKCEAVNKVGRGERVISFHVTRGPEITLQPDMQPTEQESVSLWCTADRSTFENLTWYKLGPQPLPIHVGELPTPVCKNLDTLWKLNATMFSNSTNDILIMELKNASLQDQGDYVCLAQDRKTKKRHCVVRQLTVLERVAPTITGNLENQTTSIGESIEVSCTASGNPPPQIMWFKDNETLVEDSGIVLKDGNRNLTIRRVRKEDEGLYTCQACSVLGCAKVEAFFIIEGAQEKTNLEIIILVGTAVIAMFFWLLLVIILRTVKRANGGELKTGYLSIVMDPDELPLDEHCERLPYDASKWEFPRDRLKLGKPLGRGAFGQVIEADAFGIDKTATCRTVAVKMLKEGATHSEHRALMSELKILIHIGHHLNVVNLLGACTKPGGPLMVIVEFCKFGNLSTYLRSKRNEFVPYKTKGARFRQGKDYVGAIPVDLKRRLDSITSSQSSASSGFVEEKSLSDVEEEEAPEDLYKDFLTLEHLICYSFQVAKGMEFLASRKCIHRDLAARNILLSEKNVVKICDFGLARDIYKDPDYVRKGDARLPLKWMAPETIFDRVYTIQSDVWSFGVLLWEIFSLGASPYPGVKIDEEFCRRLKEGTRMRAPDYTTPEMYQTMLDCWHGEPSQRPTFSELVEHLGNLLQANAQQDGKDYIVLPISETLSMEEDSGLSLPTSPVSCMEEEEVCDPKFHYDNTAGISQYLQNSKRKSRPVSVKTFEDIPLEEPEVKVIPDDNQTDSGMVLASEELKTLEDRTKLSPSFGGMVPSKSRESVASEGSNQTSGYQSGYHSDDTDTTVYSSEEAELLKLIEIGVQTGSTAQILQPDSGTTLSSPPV

pIC50 (KDR(VEGFR2)): 5.28
pIC50 (EGFR L858R): 8.57
pIC50 (IGF1R): 6.90
pIC50 (T790M/L858R EGFR): 8.76
Structure (SMILES): C=CC(=O)Nc1cccc(Nc2nc(Nc3ccc(N4CCN(C)CC4)nc3OC)ncc2C(F)(F)F)c1 [ES-072]
ES/NC (PD-L1 phosphorylation site S79) (PD-L1): 1.28
ES/NC (PD-L1 phosphorylation site S93) (PD-L1): 1.52
ES/NC (PD-L1 phosphorylation site S170) (PD-L1): 0.00
ES/NC (PD-L1 phosphorylation site S176) (PD-L1): 0.00
ES/NC (PD-L1 phosphorylation site S279) (PD-L1): 5.00
ES/NC (PD-L1 phosphorylation site S283) (PD-L1): 2.06
ES/NC (PD-L1 phosphorylation site T290) (PD-L1): 1.95
